Measured values taken from PMC3947346 (Psychopharmacology, 2013).

Key:
[1] = in vivo pharmacokinetic study, plasma; design: species or system mice; conditions: 10 mg/kg p.o.
[2] = test system: male C57BL/6 J mice; experiment: blood ethanol concentrations; format: in vivo; conditions: 17 mg/kg p.o.
[3] = test system: male C57BL/6 J mice; experiment: intermittent access to ethanol
[4] = test system: male C57BL/6 J mice; experiment: repeated drinking-in-the-dark

SMILES: COc1nn(-c2ccc(F)c(NC(C)=O)c2)c(=O)n(Cc2ccc(Cl)c(F)c2)c1=O [ADX71441]
- mean plasma concentration at 4 h as % of the mean Cmax ([1]; 4 h): 72%
- mean plasma concentration at 24 h as % of the mean Cmax ([1]; 24 h): 5%
- AUC0–8 ([1]; male C57BL/6 mice): 6,970 ng h/ml
- C max ± SD ([1]; male C57BL/6 mice): 673 ± 50 ng/mL
- Plasma concentration at 0.25 h ([1]; male C57BL/6 mice): 538 ± 51 ng/mL
- Plasma concentration ± SD at 1 h ([1]; male C57BL/6 mice): 629 ± 61 ng/mL
- Plasma concentration ± SD at 4 h ([1]; male C57BL/6 mice): 487 ± 62 ng/mL
- Plasma concentration ± SD at 24 h ([1]; male C57BL/6 mice): 36.4 ± 33 ng/mL
- T 1/2 (terminal half-life) ([1]; male C57BL/6 mice): 5.3 h
- T max ([1]; male C57BL/6 mice): 2 h
- AUClast ± SD ([1]; male C57BL/6 mice, Tlast=24 h): 6,700±309 ng h/ml
- BEC after 4 h IA, difference vs vehicle treatment [2]: not statistically different
- Average BEC (blood ethanol concentration) ([2]; after 4 h IA access, vehicle 47.73±9.18 mg/dl): 35.74 ± 5.34 mg/dL
- Ethanol preference, effect ([3]; IA, 3, 10, 17 mg/kg p.o., any time point): not significantly affected
- Percent change from baseline, volume of ethanol ([3]; IA, 3 mg/kg p.o., 2 h): −3.92±12.96%
- Percent change from baseline, volume of ethanol ([3]; IA, 3 mg/kg p.o., 4 h): −8.21±7.51%
- Percent change from baseline, volume of ethanol ([3]; IA, 3 mg/kg p.o., 24 h): 0.31±6.16%
- Percent change from baseline, volume of ethanol ([3]; IA, 10 mg/kg p.o., 2 h): −37.54±18.17%
- Percent change from baseline, volume of ethanol ([3]; IA, 10 mg/kg p.o., 4 h): −29.60±10.55 %
- Percent change from baseline, volume of ethanol ([3]; IA, 10 mg/kg p.o., 24 h): −10.12±5.36%
- Percent change from baseline, volume of ethanol ([3]; IA, 17 mg/kg p.o., 2 h): −66.39±10.30 %
- Percent change from baseline, volume of ethanol ([3]; IA, 17 mg/kg p.o., 4 h): −44.07±9.06 %
- Percent change from baseline, volume of ethanol ([3]; IA, 17 mg/kg p.o., 24 h): −15.30±4.81 %
- Percent change from baseline, volume of water ([3]; IA, 3 mg/kg p.o., 2 h): 46.78±40.53%
- Percent change from baseline, volume of water ([3]; IA, 3 mg/kg p.o., 4 h): 17.35±22.27%
- Percent change from baseline, volume of water ([3]; IA, 3 mg/kg p.o., 24 h): −7.73±19.28%
- Percent change from baseline, volume of water ([3]; IA, 10 mg/kg p.o., 2 h): 55.56±45.39%
- Percent change from baseline, volume of water ([3]; IA, 10 mg/kg p.o., 4 h): 19.72±20.18%
- Percent change from baseline, volume of water ([3]; IA, 10 mg/kg p.o., 24 h): 9.05±18.21%
- Percent change from baseline, volume of water ([3]; IA, 17 mg/kg p.o., 2 h): −26.90±22.63%
- Percent change from baseline, volume of water ([3]; IA, 17 mg/kg p.o., 4 h): −9.62±13.96%
- Percent change from baseline, volume of water ([3]; IA, 17 mg/kg p.o., 24 h): 10.83±11.73%
- IA ethanol drinking (gram per kilogram), effect vs vehicle ([3]; p.o., 4-h access period, 10 and 17 mg/kg most effective, not at 2 h): reduced ethanol drinking
- motor activity, observation ([4]; 30 mg/kg p.o.): signs of mild reduction in motor activity in a few animals
- DID ethanol intake (gram per kilogram), effect vs vehicle ([4]; 3, 10, 30 mg/kg p.o., hours 1-4, post hoc only 10 and 30 mg/kg): significantly and dose-dependently reduced
- Percent change from baseline, volume of ethanol (ml) ([4]; DID, 3 mg/kg p.o., 1 h): −25.93±11.92%
- Percent change from baseline, volume of ethanol (ml) ([4]; DID, 3 mg/kg p.o., 2 h): −23.12±7.29%
- Percent change from baseline, volume of ethanol (ml) ([4]; DID, 3 mg/kg p.o., 3 h): −9.84±6.84%
- Percent change from baseline, volume of ethanol (ml) ([4]; DID, 3 mg/kg p.o., 4 h): −4.83±8.82%
- Percent change from baseline, volume of ethanol (ml) ([4]; DID, 10 mg/kg p.o., 1 h): −70.44±13.55 %
- Percent change from baseline, volume of ethanol (ml) ([4]; DID, 10 mg/kg p.o., 2 h): −57.53±8.28 %
- Percent change from baseline, volume of ethanol (ml) ([4]; DID, 10 mg/kg p.o., 3 h): −36.11±5.39 %
- Percent change from baseline, volume of ethanol (ml) ([4]; DID, 10 mg/kg p.o., 4 h): −25.11±7.68 %
- Percent change from baseline, volume of ethanol (ml) ([4]; DID, 30 mg/kg p.o., 1 h): −80.73±4.11 %
- Percent change from baseline, volume of ethanol (ml) ([4]; DID, 30 mg/kg p.o., 2 h): −86.04±4.05 %
- Percent change from baseline, volume of ethanol (ml) ([4]; DID, 30 mg/kg p.o., 3 h): −80.99±4.39 %
- Percent change from baseline, volume of ethanol (ml) ([4]; DID, 30 mg/kg p.o., 4 h): −69.57±3.89 %
- Mean percent change from vehicle baseline, ethanol intake ([4]; DID, highest dose (30 mg/kg p.o.), across the 4-h test): −70–80%

SMILES: O=C1CC[C@@]2(O)[C@H]3Cc4ccc(O)c5c4[C@@]2(CCN3CC2CC2)[C@H]1O5 [Naltrexone, reference compound]
- IA ethanol drinking (gram per kilogram), effect vs saline vehicle ([3]; 10 mg/kg i.p., 2-h access): decreased ethanol drinking
- Mean percent decrease of ethanol intake (ml) ([3]; IA, 10 mg/kg i.p., 2 h): approximately 36%
- DID ethanol intake (gram per kilogram), effect vs vehicle ([4]; 0.1, 1, 10 mg/kg i.p., any subsequent hour (2-4 h)): no effect
- DID ethanol intake (gram per kilogram), effect vs vehicle ([4]; 0.1, 1, 10 mg/kg i.p., first hour, all doses): significantly reduced ethanol drinking
- Mean percent decrease of ethanol intake (ml) ([4]; DID, 10 mg/kg i.p., initial hour): approximately 57%
